Measurements taken from patent US8592466B2, “Methods for treating conditions caused by higher-than-normal dopaminergic activity in basal ganglia” (Neuropill, Inc., priority 2008, dated 2013).
Values after ≈ are worked out from the molar mass of the structure shown. Like-named read-outs stand apart in the source and are kept apart here.

What was measured:
[1] = 12 healthy adult human subjects; most events, except for one subject; cited from earlier work
[2] = Solubility in organic solvents and aqueous media; format: physicochemical
[3] = system: dopamine release in the ventral striatum; conditions: animal data, cited from earlier work
serum prolactin = experiment: Serum prolactin radioimmunoassay; format: in vivo, humans
Description: Blood for prolactin level determinations were collected on day 0 at 6:00 A.M. before breakfast (7:00 A.M.) and also three times a day on days 15, 22 and 29 with first blood draw performed at 6:00 A.M. before the morning dose of RPR 102681 (6:05 A.M.) and the other two at 30 minutes after each i.v. infusion. Prolactin levels on days 15, 22, and 29 were compared between RPR 102681 and placebo cohorts to determine the extent to which prolactin levels are modified by the administration of RPR 102681 using repeated measures ANOVA. Changes in prolactin level induced by 40 mg cocaine infusion along with RPR 102681 (days 15, 22 and 29) were compared for each subject by RPR 102681 dose level using repeated measures ANOVA.
Prolactin concentrations were determined using a commercially available radioimmunoassay (Coat-A-Count® Prolactin IRMA, Diagnostic Products Corporation, Los Angeles, Calif.). Calibrator and QCs (CONE, lots #019 and 020) were also supplied by the manufacturer. Fifty microliters of calibrators, QCs and study samples were added to prolactin polyclonal antibody-coated tubes. This was followed by 200 μL of ^125I-labeled prolactin monoclonal antibodies, followed by shaking for 2 hours. The tubes were decanted and drained; 2 mLs of buffered wash solution was added for 1-2 minutes; the tubes were again decanted and drained; this was followed by a second wash step. After thorough draining, the radioactivity in the tubes was determined from 1 minute counts using a Packard Cobra II gamma counter (Downers Grove, Ill.). In theory, the ^125I-labeled prolactin monoclonal antibodies bind only to prolactin bound to the antibody coated onto the tubes. The radioactivity retained in the tube increases as does the amount of prolactin in the samples. The software for the gamma counter generates a standard curve based on the log of the concentration and the log of the B/Bo for the calibrators. This curve is used to back-calculate the concentration of prolactin in the samples. […]

[4] = Cocaine and BE pharmacokinetics under RPR 102681 treatment; conditions: post-treatment RPR 102681 doses vs baseline
[5] = NIH study: treatment of cocaine abuse; conditions: humans
[6] = RPR 102681 plasma concentration by LC/MS/MS; format: in vivo, humans; conditions: for concentration at 95 min / concentration at 215 min: human, plasma, read-out: mean plasma concentration (3-day average); for concentration at 95 min: 95 minutes post dose; for concentration at 215 min: 215 minutes post dose
Description: […] Pharmacokinetics (peak and trough levels) of RPR 102681 during treatment at a dose of 200 mg (day 13), 400 mg (day 20) and 800 mg (day 27) b.i.d. were determined.
The plasma concentration of RPR 102681 was determined with a validated liquid chromatography assay with mass spectrometric detection (LC/MS/MS) at the Department of Biopharmaceutical Sciences, University of California, San Francisco, Calif.
The sample plasma specimens for determining plasma concentration (354 RPR 102681 plasma specimens and 109 Prolactin plasma specimens) were frozen and packed in dry ice upon receipt by the Analytical Division/Drug Studies Unit at South San Francisco, Calif. These samples were kept frozen at approximately −20° C. until analyzed.
Human plasma samples (0.100 mL) were analyzed for RPR 102681 with an LC/MS/MS procedure utilizing a PE Sciex III system equipped with a BDS Hypersil C18 column (4.6×15 mm, 5 μm particle size), a mobile system consisting of acetonitrile:water:trifluoroacetic acid (70:30:0.06) (v/v) with 0.0006% (w/v) ammonium phosphate dibasic; mass spectrometric detection was accomplished with a sample inlet, heated nebulizer, positive ionization by Atmospheric Pressure Chemical Ionization (APCI) and mass scanning by Multiple Reaction Monitoring (MRM) analysis. Sample preparation consisted of precipitation of 0.100 mL of plasma with acetonitrile containing the internal standard (prednisolone acetate) prior to separation by LC/MS/MS. The linear range of the assay was 1.0 to 160 ng/mL, with a lower limit of quantitation of 1.0 ng/mL.
Standard curve and quality control (QC) samples were generated by spiking interference free human plasma samples with known amounts of RPR 102681 and internal standard (IS). These standard curve, assay, and QC samples were processed, then 40 μl aliquots were injected into the LC/MS/MS system for chromatographic separation and subsequent mass spectrometric detection. The peak area ratios of RPR 102681 to IS were calculated for each sample from the measured peak areas obtained by LC/MS/MS. Finally, spiked concentrations and RPR 102681 to IS peak area ratios of the standard curve samples were fit by 1/x weighted least squares linear regression to the equation for the best straight line (y=mx+b, where y=peak area ratio and x=RPR 102681 concentration), and drug concentration in assay sample were calculated by the equation from the RPR 102681 to IS peak area ratios obtained by LC/MS/MS.

CC(C(=O)O)c1cccc(NC(=O)NCC(=O)N2C(C(=O)OC(C)(C)C)CSC2c2ccccc2F)c1 [RPR 102681, (2S)-2-{3-[3-({[(2R,4R)-4-tert-Butoxycarbonyl-2-(2-fluorophenyl)]-3-thiazolidinyl}carbonylmethyl)ureido]phenyl}propionic acid]
severity of adverse events and treatment-associated adverse events [1]: mild or moderate
solubility ([2]; acetone, organic solvent or mixture): 250 mg/mL (≈ 470 mM)
solubility ([2]; aqueous media, aqueous buffer, pH less than 6): < 1 mg/mL
solubility ([2]; diethyl ether, organic solvent or mixture): 100 mg/mL (≈ 188 mM)
solubility ([2]; dimethylformamide, organic solvent or mixture, dimenthylformamide): 1000 mg/mL (≈ 1880 mM)
solubility ([2]; ethanol, organic solvent or mixture): 1000 mg/mL (≈ 1880 mM)
solubility ([2]; ethyl acetate, organic solvent or mixture): 400 mg/mL (≈ 752 mM)
solubility ([2]; methylene chloride, organic solvent or mixture): 500 mg/mL (≈ 941 mM)
solubility ([2]; sodium phosphate, pH 7.4, aqueous buffer): 20 mg/mL (≈ 37.6 mM)
solubility ([2]; toluene, organic solvent or mixture): 100 mg/mL (≈ 188 mM)
solubility ([2]; water): 0.1 mg/mL (≈ 0.188 mM)
dopamine release in the ventral striatum (microdialysis) ([3]; intraperitoneal administration): stimulates dopamine release
release of dopamine compared to baseline values ([3]; intraperitoneal, highest dose tested 20 mg/Kg): almost tripled
post-cocaine prolactin value vs post-saline value (serum prolactin; RPR 102681 group, day 29): significantly lower
serum prolactin levels, RPR 102681 vs placebo subjects (serum prolactin; day 0 and pre-infusion days 15, 22, 29): no significant differences
serum prolactin response to cocaine or saline infusion, RPR 102681 vs placebo (serum prolactin; infusion days 15, 22, 29): no significant difference
cocaine and BE pharmacokinetic parameters, difference from baseline [4]: No statistically significant differences
efficacy in treating cocaine abuse [5]: ineffective
mean plasma concentration at 2-3.5 hours relative to 8-11 hours ([6]; 200 mg dose): approximately 19 times
mean plasma concentration at 2-3.5 hours relative to 8-11 hours ([6]; 400 mg dose): ~15 times
dose-proportionality of plasma concentration ([6]; 400 mg to 800 mg dose range, 95 and 215 minutes post-dose): Severe deviation from dose-proportionality
mean plasma concentration at 2-3.5 hours relative to 8-11 hours ([6]; 800 mg dose): ~8 times
least-squares mean of dose-normalized concentration ([6]; 95 minutes post-dose, day 13, 200 mg): 1.26 ng/mL
least-squares mean of dose-normalized concentration ([6]; 95 minutes post-dose, day 14, 200 mg): 1.12 ng/mL
least-squares mean of dose-normalized concentration ([6]; 95 minutes post-dose, day 15, 200 mg): 1.25 ng/mL
least-squares mean of dose-normalized concentration ([6]; 95 minutes post-dose, day 20, 400 mg): 1.36 ng/mL
least-squares mean of dose-normalized concentration ([6]; 95 minutes post-dose, day 21, 400 mg): 0.87 ng/mL
least-squares mean of dose-normalized concentration ([6]; 95 minutes post-dose, day 22, 400 mg): 1.05 ng/mL
least-squares mean of dose-normalized concentration ([6]; 95 minutes post-dose, day 27, 800 m): 0.78 ng/mL
least-squares mean of dose-normalized concentration ([6]; 95 minutes post-dose, day 28, 800 m): 0.58 ng/mL
least-squares mean of dose-normalized concentration ([6]; 95 minutes post-dose, day 29, 800 m): 0.43 ng/mL
least-squares mean of dose-normalized concentration ([6]; 215 minutes after dose, day 13, 200 mg): 0.70 ng/mL
least-squares mean of dose-normalized concentration ([6]; 215 minutes after dose, day 14, 200 mg): 0.78 ng/mL
least-squares mean of dose-normalized concentration ([6]; 215 minutes after dose, day 15, 200 mg): 0.62 ng/mL
least-squares mean of dose-normalized concentration ([6]; 215 minutes after dose, day 20, 400 mg): 0.58 ng/mL
least-squares mean of dose-normalized concentration ([6]; 215 minutes after dose, day 21, 400 mg): 0.54 ng/mL
least-squares mean of dose-normalized concentration ([6]; 215 minutes after dose, day 22, 400 mg): 0.66 ng/mL
least-squares mean of dose-normalized concentration ([6]; 215 minutes after dose, day 27, 800 mg): 0.42 ng/mL
least-squares mean of dose-normalized concentration ([6]; 215 minutes after dose, day 28, 800 mg): 0.39 ng/mL
least-squares mean of dose-normalized concentration ([6]; 215 minutes after dose, day 29, 800 mg): 0.33 ng/mL
concentration at 95 min ([6]; 200 mg b.i.d. oral): 242 ng/mL
concentration at 95 min ([6]; 400 mg b.i.d. oral): 422 ng/mL
concentration at 95 min ([6]; 800 mg b.i.d. oral): 441 ng/mL
concentration at 215 min ([6]; 200 mg b.i.d. oral): 140 ng/mL
concentration at 215 min ([6]; 400 mg b.i.d. oral): 255 ng/mL
concentration at 215 min ([6]; 800 mg b.i.d. oral): 285 ng/mL
